Laboratory results taken from US9738653B2, “Fused furans for the treatment of hepatitis C” (BRISTOL-MYERS SQUIBB COMPANY, priority 2013, dated 2017).

What was measured:
HCV [1] = conditions: combination therapy; cited from earlier work
HCV [2] = conditions: cited from earlier work
[3] = target: T1, HCV NS5B genotype 1b (Con1) (Hepatitis C virus genotype 1b, UniProt Q9WMX2); test: HCV NS5B RdRp enzyme assay; type: biochemical; conditions: 1b enzyme, 24 hours at 30° C.
T1 construct: Each untagged protein was expressed with an 18 amino acid C-terminal truncation to enhance the solubility; made in house; host or cells: E. coli BL21(DE3), pET21a
Protocol: The cDNA encoding NS5B proteins of HCV genotype 1b (Con1), a genotype 1b variant with amino acid 316 mutated from cysteine to asparagine, and genotype 2a (JFH-1), were cloned into the pET21a expression vector. Each untagged protein was expressed with an 18 amino acid C-terminal truncation to enhance the solubility. The E. coli competent cell line BL21(DE3) was used for expression of the protein. Cultures were grown at 37° C. for ˜4 hours until the cultures reached an optical density of 2.0 at 600 nm. The cultures were cooled to 20° C. and induced with 1 mM IPTG. Fresh ampicillin was added to a final concentration of 50 μg/mL and the cells were grown overnight at 20° C.
The lysis buffer consisted of 20 mM Tris-HCl, pH 7.4, 500 mM NaCl, 0.5% triton X-100, 1 mM DTT, 1 mM EDTA, 20% glycerol, 0.5 mg/mL lysozyme, 10 mM MgCl2, 15 ug/mL deoxyribonuclease I, and Complete™ protease inhibitor tablets (Roche). After addition of the lysis buffer, frozen cell pellets were resuspended using a tissue homogenizer. To reduce the viscosity of the sample, aliquots of the lysate were sonicated on ice using a microtip attached to a Branson sonicator. The sonicated lysate was centrifuged at 100,000×g for 30 minutes at 4° C. and filtered through a 0.2 μm filter unit (Corning).
The protein was purified using two sequential chromatography steps: Heparin sepharose CL-6B and polyU sepharose 4B. The chromatography buffers were identical to the lysis buffer but contained no lysozyme, deoxyribonuclease I, MgCl2 or protease inhibitor and the NaCl concentration of the buffer was adjusted according to the requirements for charging the protein onto the column. Each column was eluted with a NaCl gradient which varied in length from 5-50 column volumes depending on the column type. […] The enzyme was aliquoted and stored at −80° C.
An on-bead solid phase homogeneous assay was used in a 384-well format to assess NS5B inhibitors (WangY-K, Rigat K, Roberts S, and Gao M (2006) Anal Biochem, 359: 106-111). The biotinylated oligo dT12 primer was captured on streptavidin-coupled imaging beads (GE, RPNQ0261) by mixing primer and beads in 1× buffer and incubating at room temperature for three hours. Unbound primer was removed after centrifugation. The primer-bound beads were resuspended in 3× reaction mix (20 mM Hepes buffer, pH 7.5, dT primer coupled beads, poly A template, ^3H-UTP, and RNAse inhibitor (Promega N2515)). Compounds were serially diluted 1:3 in DMSO and aliquoted into assay plates. Equal volumes (5 μL) of water, 3× reaction mix, and enzyme in 3× assay buffer (60 mM Hepes buffer, pH 7.5, 7.5 mM MgCl2, 7.5 mM KCl, 3 mM DTT, 0.03 mg/mL BSA, 6% glycerol) were added to the diluted compound on the assay plate. Final concentration of components in 384-well assay: 0.36 nM template, 15 nM primer, 0.29 μM ^3H-UTP (0.3 μCi, 1.6 U/μL RNAse inhibitor, 7 nM NS5B enzyme, 0.01 mg/mL BSA, 1 mM DTT, and 0.33 μg/μL beads, 20 mM Hepes buffer, pH 7.5, 2.5 mM MgCl2, 2.5 mM KCl, and 0.1% DMSO.
Reactions were allowed to proceed for 24 hours at 30° C. and terminated by the addition of 50 mM EDTA (5 μL). After incubating for at least 15 minutes, plates were read on an Amersham LEADseeker multimodality imaging system.
IC50 values for compounds were determined using ten different [I]. IC50 values were calculated from the inhibition using the four-parameter logistic formula y=A+((B−A)/(1+((C/x)^D))), where A and B denote minimal and maximal % inhibition, respectively, C is the IC50, D is hill slope and x represents compound concentration.

[4] = test system: genotype 1b (Con-1) HCV replicon in Huh-7 cells; test: HCV replicon luciferase assay; type: cell-based; conditions: 1b replicon, Renilla luciferase, 3 days incubation
Protocol: The cell lines used to evaluate compounds consist of a human hepatocyte derived cell line (Huh-7) that constitutively expresses a genotype 1b (Con-1) HCV replicon or a genotype 1b (Con-1) HCV replicon with an asparagine replacing the cysteine at amino acid 316, or a genotype 2a (JFH-1) replicon, containing a Renilla luciferase reporter gene. These cells were maintained in Dulbecco's modified Eagle medium (DMEM) containing 10% FBS, 100 U/mL penicillin/streptomycin and 1.0 mg/mL G418.
To evaluate compound efficacy, titrated compounds were transferred to sterile 384-well tissue culture treated plates, and the plates were seeded with HCV replicon cells ([…] at a density of 2.4×10^3 cells/well) in DMEM containing 4% FBS (final DMSO concentration at 0.5%). After 3 days incubation at 37° C., cells were analyzed for Renilla Luciferase activity using the EnduRen substrate (Promega cat #E6485) according to the manufacturer's directions. Briefly, the EnduRen substrate was diluted in DMEM and then added to the plates to a final concentration of 7.5 μM. The plates were incubated for at least 1 h at 37° C. then read on a Viewlux Imager (PerkinElmer) using a luminescence program. The 50% effective concentration (EC50) was calculated using the four-parameter logistic formula noted above.

T1 sequence (Q9WMX2 2420-2992): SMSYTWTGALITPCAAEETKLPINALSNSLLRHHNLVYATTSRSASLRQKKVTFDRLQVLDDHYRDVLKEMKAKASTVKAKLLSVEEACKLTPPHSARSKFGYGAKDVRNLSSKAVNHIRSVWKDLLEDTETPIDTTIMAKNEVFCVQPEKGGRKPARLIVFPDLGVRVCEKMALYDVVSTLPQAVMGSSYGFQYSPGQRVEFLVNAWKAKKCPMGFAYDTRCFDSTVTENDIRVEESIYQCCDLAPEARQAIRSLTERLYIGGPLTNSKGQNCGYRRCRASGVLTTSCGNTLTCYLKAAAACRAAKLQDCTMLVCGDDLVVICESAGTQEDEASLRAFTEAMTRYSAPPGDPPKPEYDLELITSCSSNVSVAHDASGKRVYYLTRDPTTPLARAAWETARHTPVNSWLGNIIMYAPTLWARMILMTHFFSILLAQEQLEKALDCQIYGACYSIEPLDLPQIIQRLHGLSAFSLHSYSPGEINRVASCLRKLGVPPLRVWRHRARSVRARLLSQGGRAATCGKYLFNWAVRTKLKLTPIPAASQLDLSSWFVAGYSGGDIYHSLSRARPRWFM

Molecule	IC50 [3] [nM]	EC50 ([4]; Hepatitis C virus, Huh-7, 72 h) [nM]	other results
alpha-interferon and ribavirin	–	–	sustained efficacy, patients (HCV [1]): 40%
CNC(=O)c1c(-c2ccc(F)cc2)oc2cc(N(CCO)S(C)(=O)=O)c(C3CC3)cc12 [HCV-796]	–	–	hepatic toxicity (HCV [2]; extended dosing of the combination regimens with interferon and ribavirin): hepatic toxicity observed; HCV RNA levels in patients (HCV [2]; patients, single agent): showed an ability to reduce HCV RNA levels in patients
CCC(C)c1cc2oc(-c3ccc(F)cc3)c(C(=O)NC)c2cc1-c1cccc(C(=O)NC23CC(C2)C3)c1 (stereo not drawn) [drawing 294]	10	–	EC50 [4]: 10 nM
CNC(=O)c1c(-c2ccc(F)cc2)oc2nc(CCC(F)(F)F)c(-c3cnc(OC)c(C(=O)NC45CC(C4)C5)c3)cc12	3.65	6.48	–
CNC(=O)c1c(-c2ccc(F)cc2)oc2cc(OCC(F)(F)F)c(-c3ccc(OC)c(C(=O)NC45CC(C4)C5)c3)cc12	4.55	10	–
CNC(=O)c1c(-c2ccc(F)cc2)oc2cc(COC)c(-c3cc(C(=O)NC45CC(C4)C5)c(OC)cc3C)c(F)c12	30	30	–
CNC(=O)c1c(-c2ccc(F)cc2)oc2nc(CCC(F)(F)F)c(-c3ccc(OC)c(C(=O)NC45CC(C4)C5)c3)cc12	10	9.23	–
CNC(=O)c1c(-c2ccc(F)cc2)oc2cc(CCNS(C)(=O)=O)c(-c3cccc(C(=O)NC45CC(C4)C5)c3)cc12	10	20	–
CCCc1cc2oc(-c3ccc(F)cc3)c(C(=O)NC)c2cc1-c1cc(C(=O)NC23CC(C2)C3)c(OC)cc1C	30	30	–
CNC(=O)c1c(-c2ccc(F)cc2)oc2cc([N+](=O)[O-])c(-c3cccc(C(=O)NC45CC(C4)C5)c3)c(F)c12	680	170	–
CNC(=O)c1c(-c2ccc(F)cc2)oc2nc(NCC(F)F)c(-c3ccc(F)c(C(=O)NC45CC(C4)C5)c3)cc12	6.13	2.13	–
CCN(c1nc2oc(-c3ccc(F)cc3)c(C(=O)NC)c2cc1-c1cccc(C(=O)NC23CC(C2)C3)c1)S(C)(=O)=O	6.8	2.85	–
CCCc1nc2oc(-c3ccc(F)cc3)c(C(=O)NC)c2cc1-c1ccc(F)c(C(=O)NC23CC(C2)C3)c1	5.65	5.16	–
CNC(=O)c1c(-c2ccc(F)cc2)oc2cc(CCC(F)F)c(-c3cccc(C(=O)NC45CC(C4)C5)c3)cc12	7.19	3.89	–
CNC(=O)c1c(-c2ccc(F)cc2)oc2cc(CCC(F)(F)F)c(-c3cc(C(=O)NC45CC(C4)C5)c(F)cc3C)cc12	20	20	–
CNC(=O)c1c(-c2ccc(F)cc2)oc2cc(NCC(F)(F)F)c(-c3ccc(OC)c(C(=O)NC45CC(C4)C5)c3)cc12	7.17	5.08	–
CNC(=O)c1c(-c2ccc(F)cc2)oc2nc(NCC(F)(F)F)c(-c3ccc(F)c(C(=O)NC45CC(C4)C5)c3)cc12	9.08	4.34	–
CNC(=O)c1c(-c2ccc(F)cc2)oc2nc(NCC(F)F)c(-c3ccc(OC)c(C(=O)NC45CC(C4)C5)c3)cc12	8.87	6.23	–
CNC(=O)c1c(-c2ccc(F)cc2)oc2cc(CCCO)c(-c3cccc(C(=O)NC45CC(C4)C5)c3)cc12	9.56	3.86	–
CNC(=O)c1c(-c2ccc(F)cc2)oc2cc(CCC(F)(F)F)c(-c3ccc(F)c(C(=O)NC45CC(C4)C5)c3)cc12	30	10	–
